# From patent publication US9044520B2, “Compound accumulating in inflammatory site, diagnostic agent containing the compound in labeled state and its precursor compound for labeling” (Nihon Medi-Physics Co., Ltd., priority 2011, dated 2015)
# Non-standard residues stand in square brackets, D forms with d. Residues, ends and D or L forms follow the SMILES beside them. *: point of attachment. Benzoyl(4-F) = O=C(c1ccc(F)cc1)*; Nle = CCCC[C@H](N)C(=O)O; For = O=C*
# Target: T1, formylated peptide receptor (FPR) (Homo sapiens, UniProt P21462)
# T1 sequence (P21462 1-350): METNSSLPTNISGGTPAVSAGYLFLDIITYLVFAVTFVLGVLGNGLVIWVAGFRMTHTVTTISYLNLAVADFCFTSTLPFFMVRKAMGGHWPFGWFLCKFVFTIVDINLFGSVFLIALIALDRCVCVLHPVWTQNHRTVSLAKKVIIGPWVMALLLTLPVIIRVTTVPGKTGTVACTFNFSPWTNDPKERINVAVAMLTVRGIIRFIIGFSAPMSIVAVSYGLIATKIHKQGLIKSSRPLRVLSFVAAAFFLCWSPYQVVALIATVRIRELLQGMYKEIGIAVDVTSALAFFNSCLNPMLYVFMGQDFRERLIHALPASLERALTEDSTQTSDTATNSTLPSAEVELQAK
# Experiment: Binding assay/inhibition assay: binding affinity for formylated peptide receptor (FPR), displacement of [125I] Trp-Lys-Tyr-Met-Val-DMet
# Settings: read-out: Ki (Mean value ± SD)
# Procedure: Each peptide having a different concentration (DMSO solution, 10 μL), 2 nmol/L [^125I] Trp-Lys-Tyr-Met-Val-DMet (10 μL) as radioligand, and FPR (10 μL) were added to a binding buffer (170 μL) and incubated at 25° C. for 1 hour, followed by collection by filtration (cell harvesters) using a GF/C filter coated with a polylysine buffer. After washing, radioactivity left on the filter was measured using a γ counter. [^125I] Trp-Lys-Tyr-Met-Val-DMet means a positive control having affinity for FPR and was obtained from PerkinElmer Co., Ltd. for use.
# *Binding buffer: 50 mmol/L Hepes, pH 7.4, 5 mmol/L MgCl2, 1 mmol/L CaCl2, 0.2% BSA
# Wash buffer: 50 mmol/L Hepes, pH 7.4, 500 mmol/L NaCl, 0.1% BSA
# Polylysine buffer: Poly-L-lysine hydrobromate 100 mg/wash buffer 100 mL
# Ki values in the table were calculated using the following equation (1).
# IC50: Calculation from Graph Pad
# [L]: Concentration of Radioligand (Adjusted to 0.2 nM)
row,Ki [nM],SMILES
1,0.4 ± 0.36,"CCCC[C@H](NC=O)C(=O)N[C@@H](CC(C)C)C(=O)N[C@@H](Cc1ccccc1)C(=O)N[C@@H](CCCC)C(=O)N[C@@H](Cc1ccc(O)cc1)C(=O)N[C@H](CCCCNC(=O)c1ccc(F)cc1)C(N)=O [Peptide 2, formyl-Nle-Leu-Phe-Nle-Tyr-DLys-ε([^19F]FB)-NH2] (For-[Nle]LF[Nle]Y[dK](Benzoyl(4-F))-NH2)"
2,0.63 ± 0.14,"CCCC[C@H](NC(=O)[C@H](Cc1ccccc1)NC(=O)[C@H](CC(C)C)NC(=O)[C@H](CCSC)NC=O)C(=O)N[C@@H](Cc1ccc(O)cc1)C(=O)N[C@H](CCCCNC(=O)c1ccc(F)cc1)C(=O)N[C@H](CCCCN)C(N)=O [Peptide 5, formyl-Met-Leu-Phe-Nle-Tyr-DLys-ε([^19F]FB)-DLys-NH2] (For-MLF[Nle]Y[dK](Benzoyl(4-F))[dK]-NH2)"
3,0.46 ± 0.07,"CCCC[C@H](NC(=O)[C@H](Cc1ccccc1)NC(=O)[C@H](CC(C)C)NC(=O)[C@H](CCSC)NC=O)C(=O)N[C@@H](Cc1ccc(O)cc1)C(=O)N[C@H](CCCCN)C(=O)N[C@H](CCCCNC(=O)c1ccc(F)cc1)C(N)=O [Peptide 3, formyl-Met-Leu-Phe-Nle-Tyr-DLys-DLys-ε([^19F]FB)-NH2] (For-MLF[Nle]Y[dK][dK](Benzoyl(4-F))-NH2)"
4,0.04 ± 0.04,"CCCC[C@H](NC(=O)[C@H](Cc1ccccc1)NC(=O)[C@H](CC(C)C)NC(=O)[C@H](CCSC)NC=O)C(=O)N[C@@H](Cc1ccc(O)cc1)C(=O)N[C@H](CCCCNC(=O)c1ccc(F)cc1)C(N)=O [Peptide 1, formyl-Met-Leu-Phe-Nle-Tyr-DLys-ε([^19F]FB)-NH2] (For-MLF[Nle]Y[dK](Benzoyl(4-F))-NH2)"
5,1.22 ± 0.4,"CCCC[C@H](NC=O)C(=O)N[C@@H](CC(C)C)C(=O)N[C@@H](Cc1ccccc1)C(=O)N[C@@H](CCCC)C(=O)N[C@@H](Cc1ccc(O)cc1)C(=O)N[C@H](CCCCN)C(=O)N[C@H](CCCCNC(=O)c1ccc(F)cc1)C(N)=O [Peptide 4, formyl-Nle-Leu-Phe-Nle-Tyr-DLys-DLys-ε([^19F]FB)-NH2] (For-[Nle]LF[Nle]Y[dK][dK](Benzoyl(4-F))-NH2)"
6,21.9 ± 12.7,"CCCC[C@H](NC=O)C(=O)N[C@@H](CC(C)C)C(=O)N[C@@H](Cc1ccccc1)C(=O)N[C@@H](CCCC)C(=O)N[C@@H](Cc1ccc(O)cc1)C(=O)N[C@H](CCCCN)C(=O)N[C@H](CCCCN)C(=O)N[C@H](CCCCNC(=O)c1ccc(F)cc1)C(N)=O [Peptide 6, formyl-Nle-Leu-Phe-Nle-Tyr-DLys-DLys-DLys-ε([^19F]FB)-NH2, reference compound] (For-[Nle]LF[Nle]Y[dK][dK][dK](Benzoyl(4-F))-NH2)"
